Data from paper PMC5042178, “Amino acid residues of bitter taste receptor TAS2R16 that determine sensitivity in primates to β-glycosides” (Biophysics and Physicobiology, 2016).
Positions count from the first letter of the chain named. Read-outs that look alike come from different tables or passages of the source.

What was measured:
Experiment in all cases: calcium imaging (Calcium-4), HEK […]
Assay type in all cases: cell-based
[1] = target: T1, human TAS2R16 (Homo sapiens, UniProt Q9NYV7)
T1 construct: full-length; N-terminal 45 residues of rat SSTR3 and C-terminal 8 residues of bovine rhodopsin as tags; pEAK10, HEK 293T with G16gust44
T1 sequence (Q9NYV7 1-291): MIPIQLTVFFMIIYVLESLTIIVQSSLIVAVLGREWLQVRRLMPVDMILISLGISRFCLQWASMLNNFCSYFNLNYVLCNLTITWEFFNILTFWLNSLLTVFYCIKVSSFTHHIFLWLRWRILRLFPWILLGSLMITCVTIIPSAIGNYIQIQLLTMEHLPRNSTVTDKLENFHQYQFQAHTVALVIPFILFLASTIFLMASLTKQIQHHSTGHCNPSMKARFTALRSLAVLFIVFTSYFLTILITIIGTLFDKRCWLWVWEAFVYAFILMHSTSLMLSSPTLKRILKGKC

[2] = target: T2, human TAS2R16 (Homo sapiens, UniProt Q9NYV7, V260F)
T2 construct: full-length; N-terminal 45 residues of rat SSTR3 and C-terminal 8 residues of bovine rhodopsin as tags; pEAK10, HEK 293T with G16gust44
T2 sequence (Q9NYV7 1-291 V260F): T1 sequence (Q9NYV7 1-291) with V260F

[3] = target: T3, human TAS2R16 (Homo sapiens, UniProt Q9NYV7, S133C)
T3 construct: full-length; N-terminal 45 residues of rat SSTR3 and C-terminal 8 residues of bovine rhodopsin as tags; pEAK10, HEK 293T with G16gust44
T3 sequence (Q9NYV7 1-291 S133C): T1 sequence (Q9NYV7 1-291) with S133C

[4] = target: T4, human TAS2R16 (Homo sapiens, UniProt Q9NYV7, E86T/V260F)
T4 construct: full-length; N-terminal 45 residues of rat SSTR3 and C-terminal 8 residues of bovine rhodopsin as tags; pEAK10, HEK 293T with G16gust44
T4 sequence (Q9NYV7 1-291 E86T/V260F): T1 sequence (Q9NYV7 1-291) with E86T, V260F

[5] = target: T1, human TAS2R16; conditions: G16gust44 co-expressed; agonist
[6] = target: T5, human TAS2R16 (Homo sapiens, UniProt Q9NYV7, L125W)
T5 construct: full-length; N-terminal 45 residues of rat SSTR3 and C-terminal 8 residues of bovine rhodopsin as tags; pEAK10, HEK 293T with G16gust44
T5 sequence (Q9NYV7 1-291 L125W): T1 sequence (Q9NYV7 1-291) with L125W

[7] = target: T6, human TAS2R16 (Homo sapiens, UniProt Q9NYV7, E86T/I247M)
T6 construct: full-length; N-terminal 45 residues of rat SSTR3 and C-terminal 8 residues of bovine rhodopsin as tags; pEAK10, HEK 293T with G16gust44
T6 sequence (Q9NYV7 1-291 E86T/I247M): T1 sequence (Q9NYV7 1-291) with E86T, I247M

[8] = target: T7, human TAS2R16 (Homo sapiens, UniProt Q9NYV7, I247M)
T7 construct: full-length; N-terminal 45 residues of rat SSTR3 and C-terminal 8 residues of bovine rhodopsin as tags; pEAK10, HEK 293T with G16gust44
T7 sequence (Q9NYV7 1-291 I247M): T1 sequence (Q9NYV7 1-291) with I247M

[9] = target: T8, human TAS2R16 (Homo sapiens, UniProt Q9NYV7, E86T/I247M/V260F)
T8 construct: full-length; N-terminal 45 residues of rat SSTR3 and C-terminal 8 residues of bovine rhodopsin as tags; pEAK10, HEK 293T with G16gust44
T8 sequence (Q9NYV7 1-291 E86T/I247M/V260F): T1 sequence (Q9NYV7 1-291) with E86T, I247M, V260F

SMILES	EC50 [1]	EC50 [2]	EC50 [3]	EC50 [4]	EC50 [5]	EC50 [6]	EC50 [7]	EC50 [8]	EC50 [9]
N#C[C@H](O[C@@H]1O[C@H](CO[C@@H]2O[C@H](CO)[C@@H](O)[C@H](O)[C@H]2O)[C@@H](O)[C@H](O)[C@H]1O)c1ccccc1 [amygdalin]	760 ± 400 µM								
OCc1ccccc1O[C@@H]1O[C@H](CO)[C@@H](O)[C@H](O)[C@H]1O [salicin]		1280 ± 180 µM	74 ± 6 µM	3650 ± 1000 µM	plotted with wild-type human and macaque TAS2R16s	200 ± 50 µM	3540 ± 550 µM	1400 ± 90 µM	5090 ± 1100 µM
